In ChEMBL document CHEMBL1128018, “Structure-activity relationships of the non-peptidyl growth hormone secretagogue L-692,429” (1994):

Species on record: Rattus norvegicus
Test: Growth hormone release from rat pituitary cells
Assay type: functional
Settings: Pituitary gland cell, read-out: ED50 (the source's name)

SMILES	EC50 [nM]
CC(C)(N)CC(=O)N[C@@H]1CCc2ccccc2N(Cc2ccc(-c3ccccc3-c3nn[nH]n3)cc2)C1=O	60
CC(C)(N)C(=O)N[C@@H]1CCc2ccccc2N(Cc2ccc(-c3ccccc3-c3nn[nH]n3)cc2)C1=O	30
CO[C@H](C)CNC(C)(C)CC(=O)N[C@@H]1CCc2ccccc2N(Cc2ccc(-c3ccccc3-c3nn[nH]n3)cc2)C1=O	20
CC(C)(CC(=O)N[C@@H]1CCc2ccccc2N(Cc2ccc(-c3ccccc3-c3nn[nH]n3)cc2)C1=O)NCCO	30
CC(C)(CC(=O)N[C@@H]1CCc2ccccc2N(Cc2ccc(-c3ccccc3-c3nn[nH]n3)cc2)C1=O)NC[C@H](O)CO	10
CC(C)(CC(=O)N[C@@H]1CCc2ccccc2N(Cc2ccc(-c3ccccc3-c3nn[nH]n3)cc2)C1=O)NC[C@H](O)c1ccccc1	1000
C[C@@H](O)CCNC(C)(C)CC(=O)N[C@@H]1CCc2ccccc2N(Cc2ccc(-c3ccccc3-c3nn[nH]n3)cc2)C1=O	10
C[C@@H](O)CNC(C)(C)CC(=O)N[C@@H]1CCc2ccccc2N(Cc2ccc(-c3ccccc3-c3nn[nH]n3)cc2)C1=O [L-692585]	3
C[C@@H](O)CNC(C)(C)C(=O)N[C@@H]1CCc2ccccc2N(Cc2ccc(-c3ccccc3-c3nn[nH]n3)cc2)C1=O	300
CC(C)(O)CNC(C)(C)CC(=O)N[C@@H]1CCc2ccccc2N(Cc2ccc(-c3ccccc3-c3nn[nH]n3)cc2)C1=O	10
CCOC(=O)CNC(C)(C)CC(=O)N[C@@H]1CCc2ccccc2N(Cc2ccc(-c3ccccc3-c3nn[nH]n3)cc2)C1=O	56
CCCNC(C)(C)CC(=O)N[C@@H]1CCc2ccccc2N(Cc2ccc(-c3ccccc3-c3nn[nH]n3)cc2)C1=O	50
CC(C)[C@@H](O)CNC(C)(C)CC(=O)N[C@@H]1CCc2ccccc2N(Cc2ccc(-c3ccccc3-c3nn[nH]n3)cc2)C1=O	200
C[C@H](O)CNC(C)(C)C(=O)N[C@@H]1CCc2ccccc2N(Cc2ccc(-c3ccccc3-c3nn[nH]n3)cc2)C1=O	700
CC(=O)O[C@@H](C)CNC(C)(C)CC(=O)N[C@@H]1CCc2ccccc2N(Cc2ccc(-c3ccccc3-c3nn[nH]n3)cc2)C1=O	200
C[C@@H](O)CCNC(C)(C)C(=O)N[C@@H]1CCc2ccccc2N(Cc2ccc(-c3ccccc3-c3nn[nH]n3)cc2)C1=O	100
CC(C)(CC(=O)N[C@@H]1CCc2ccccc2N(Cc2ccc(-c3ccccc3-c3nn[nH]n3)cc2)C1=O)NC[C@H](O)[C@@H](O)CO	40
C[C@H](O)CNC(C)(C)CC(=O)N[C@@H]1CCc2ccccc2N(Cc2ccc(-c3ccccc3-c3nn[nH]n3)cc2)C1=O	7
C[C@@H](F)CNC(C)(C)CC(=O)N[C@@H]1CCc2ccccc2N(Cc2ccc(-c3ccccc3-c3nn[nH]n3)cc2)C1=O	90
CC(C)[C@H](O)CNC(C)(C)CC(=O)N[C@@H]1CCc2ccccc2N(Cc2ccc(-c3ccccc3-c3nn[nH]n3)cc2)C1=O	1000
C[C@H](O)CCNC(C)(C)C(=O)N[C@@H]1CCc2ccccc2N(Cc2ccc(-c3ccccc3-c3nn[nH]n3)cc2)C1=O	50

Species on record: Rattus norvegicus
Test: Growth hormone release was determined in rat pituitary cells at 1 uM; A - weakly active
Assay type: functional, cell-based
Settings: Pituitary gland cell

SMILES	Growth hormone release activity call at 1 uM
CC(C)(CC(=O)N[C@@H]1CCc2ccccc2N(Cc2ccc(-c3ccccc3-c3nn[nH]n3)cc2)C1=O)NCCOCc1ccccc1	Weak activity
C[C@H](O)CCNC(C)(C)CC(=O)N[C@@H]1CCc2ccccc2N(Cc2ccc(-c3ccccc3-c3nn[nH]n3)cc2)C1=O	Weak activity
CC(C)(CC(=O)N[C@@H]1CCc2ccccc2N(Cc2ccc(-c3ccccc3-c3nn[nH]n3)cc2)C1=O)NCC(=O)O	Weak activity
C[C@H](CNC(C)(C)CC(=O)N[C@@H]1CCc2ccccc2N(Cc2ccc(-c3ccccc3-c3nn[nH]n3)cc2)C1=O)OCc1ccccc1	Weak activity
